Our source for the viability and IC50 values is US12577537B2, “Method for culturing primary cancer cells through simulated microgravity-induced reprogramming and applications thereof” (SHANDONG UNIVERSITY, priority 2024, dated 2026).

As a reminder, the viability is a read-out of living cells in per cent, often relative to untreated cells. As a reminder, the IC50 is the concentration at which inhibition is half-maximal. A low value points to inhibition by little substance.

One data set is described as follows: in vitro. The following applies: human. From the text:
(§1) Wherein, FIGS. 12D to 12I show the dose-response relationships of breast cancer cells (D, F, H) and normal breast tissue cells (E, G, I) from three patients (38, 7, and 71) to epirubicin; FIGS. 12J to 12O show the dose-response relationships of breast cancer cells (J, L, N) and normal breast tissue cells (K, M, O) from the same three patients (38, 7, and 71) to cyclophosphamide.
(§2) The inventors conducted drug-related experiments using the cancer cell models prepared by the method of the present application. FIG. 12A lists 8 types of common drugs used in clinical treatment of breast cancer, including epirubicin, cyclophosphamide, docetaxel, etc. This example selected two of them (FIG. 12B: epirubicin, FIG. 12C: cyclophosphamide) to conduct drug sensitivity tests on breast cancer cells from different patients cultivated in Example 5.

In a further data set the test system is breast cancer cells. The data set can be described thus: Drug sensitivity test on SMGIR-cultured breast cancer cells from patients. Type of data set: cell-based. The following applies: Homo sapiens.
Excerpt: as §1, §2

The subject of data set [1] is normal breast tissue cells. The data set can be described thus: Drug sensitivity test on SMGIR-cultured normal breast tissue (cancer-adjacent) cells from patients. The format is cell-based. Conditions: Homo sapiens.
Excerpt: as §1, §2

In the data set “in vitro”, `O=P1(N(CCCl)CCCl)NCCCO1` (stereo not shown) [cyclophosphamide] came in with a viability at 4000 μM of 70 to 80%.
With `COc1cccc2c1C(=O)c1c(O)c3c(c(O)c1C2=O)C[C@@](O)(C(=O)CO)C[C@@H]3O[C@H]1C[C@H](N)[C@@H](O)[C@H](C)O1` [epirubicin], the half-inhibitory concentration (IC50) was 454 nM in the data set on breast cancer cells (12 h, breast cancer cells from patient 71, SMGIR-cultured (FIG. 12H)); 583 nM with breast cancer cells (breast cancer cells from patient 7, SMGIR-cultured (FIG. 12F)); 369 nM in the data set on breast cancer cells (breast cancer cells from patient 38, SMGIR-cultured (FIG. 12D)); 651 nM in data set [1] (normal breast tissue cells from patient 7, SMGIR-cultured (FIG. 12G)); 357 nM in data set [1] (normal breast tissue cells from patient 38, SMGIR-cultured (FIG. 12E)); 766 nM in data set [1] (normal breast tissue cells from patient 71, SMGIR-cultured (FIG. 12I)).
